According to publication PMC10811744 (Molecular cancer therapeutics, 2023):
“And” between values parts separate entries of the source, which are not always exact repeats. Equal values may be shown once. Read-outs that look alike come from different tables or passages of the source.

How the values were obtained:
GBM cells [1] = settings: read-out: IC50 in GBM cells, no reference given; cited from earlier work
[2] = no reference given; cited from earlier work
GBM cells [3] = experiment: GBM cell viability; assay type: cell-based, human; settings: read-out: GBM cell viability IC50
ERα = ERα (Homo sapiens, UniProt P03372); experiment: ERE-Luc reporter gene assay in HEK293T cells expressing ERα; assay type: cell-based; settings: 24 hours
Sequence of ERα (P03372 whole entry): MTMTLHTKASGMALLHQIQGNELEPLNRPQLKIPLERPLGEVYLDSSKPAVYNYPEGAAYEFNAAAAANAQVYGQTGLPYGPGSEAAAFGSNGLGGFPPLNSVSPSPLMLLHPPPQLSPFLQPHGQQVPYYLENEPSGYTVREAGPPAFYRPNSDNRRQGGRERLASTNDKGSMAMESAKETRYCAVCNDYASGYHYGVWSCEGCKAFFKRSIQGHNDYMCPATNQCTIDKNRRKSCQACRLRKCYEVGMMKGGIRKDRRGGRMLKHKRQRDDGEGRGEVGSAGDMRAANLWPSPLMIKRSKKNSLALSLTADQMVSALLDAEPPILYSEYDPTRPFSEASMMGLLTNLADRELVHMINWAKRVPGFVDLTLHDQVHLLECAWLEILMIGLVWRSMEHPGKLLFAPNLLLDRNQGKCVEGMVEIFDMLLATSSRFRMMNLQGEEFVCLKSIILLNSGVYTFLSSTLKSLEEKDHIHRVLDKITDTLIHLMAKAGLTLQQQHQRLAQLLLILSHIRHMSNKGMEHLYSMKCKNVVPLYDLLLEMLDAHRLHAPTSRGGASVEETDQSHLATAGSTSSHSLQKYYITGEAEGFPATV

U251- ERβ KO cells = experiment: Invasion and colony formation of U251-ERβ KO cells; assay type: cell-based, human
U251 and U87 cells = experiment: Colony formation; assay type: cell-based, human; settings: 10 μM
GBM cells [4] = experiment: Annexin V/PI apoptosis assay; assay type: cell-based, human; settings: 20 μM
primary GSCs = experiment: CellTiter Glo cell viability assay, patient derived GSCs; assay type: cell-based, human; settings: multiple primary GSCs
U251 GBM cells = experiment: MTT cell viability assay, WT U251 GBM cells; assay type: cell-based, human
[5] = system: U251 subcutaneous xenograft; settings: 20 mg/kg/day i.p.
[6] = mouse, in vivo, ip, 20 mg/kg
SOX2, and OCT4 = experiment: Western blotting of stemness markers in GSCs; assay type: cell-based, human
[7] = system: GSC-040815 orthotopic tumor; experiment: Orthotopic xenograft model with patient-derived GSC-040815 cells; assay type: in vivo, SCID mice; settings: 50 mg/kg/i.p.
normal human astrocytes = experiment: MTT cell viability assay, normal human astrocytes; assay type: cell-based
[8] = system: U251 and U87 GBM model cells; experiment: Matrigel invasion chamber assay; assay type: cell-based, human; settings: 10μM, 22h
[9] = system: GSC-031417, GSC-012015, and GSC-040815 cells; experiment: Neurosphere formation assay; assay type: cell-based, human; settings: 20 μM, three GSC model cells
ERβ [10] = biological target: T1, ERβ (Homo sapiens, UniProt Q92731); experiment: PolarScreen ER competitive binding assay; settings: based on EC50 values from polar screen ERα and ERβ assays
T1 sequence (Q92731 whole entry): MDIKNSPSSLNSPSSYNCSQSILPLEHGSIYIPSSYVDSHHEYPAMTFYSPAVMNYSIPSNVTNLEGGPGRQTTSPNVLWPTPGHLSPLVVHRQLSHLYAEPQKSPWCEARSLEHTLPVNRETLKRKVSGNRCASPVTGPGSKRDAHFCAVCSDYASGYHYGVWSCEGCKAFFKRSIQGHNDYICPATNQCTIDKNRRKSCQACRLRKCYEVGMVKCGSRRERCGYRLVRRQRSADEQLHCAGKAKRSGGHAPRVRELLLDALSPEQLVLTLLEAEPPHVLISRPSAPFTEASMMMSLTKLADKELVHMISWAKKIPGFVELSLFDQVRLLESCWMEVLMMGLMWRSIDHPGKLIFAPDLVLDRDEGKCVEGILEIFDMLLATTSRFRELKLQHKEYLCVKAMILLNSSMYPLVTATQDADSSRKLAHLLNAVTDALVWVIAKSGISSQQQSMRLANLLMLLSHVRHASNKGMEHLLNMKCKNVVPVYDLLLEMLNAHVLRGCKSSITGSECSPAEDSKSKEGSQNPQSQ

[11] = system: U251 GBM model cells expressing ERβ; experiment: MTT cell viability assay, U251 GBM model cells expressing ERβ; assay type: cell-based, human; settings: read-out: growth inhibitory activity IC50
U251-ERβ-KO cells = experiment: MTT cell viability assay, U251-ERβ-KO cells; assay type: cell-based, human
orthotopic U251 tumor = experiment: Orthotopic U251 xenograft model; assay type: in vivo, mice; settings: 50 mg/kg/i.p.
ERβ [12] = biological target: T1, ERβ; experiment: ERE-Luc reporter gene assay in HEK293T cells expressing ERβ; assay type: cell-based; settings: 24 hours
ERβ [13] = biological target: T1, ERβ; experiment: ERE-Luc reporter gene assay in U251 GBM cells expressing ERβ; assay type: cell-based; settings: 24 h
ERβ target genes = experiment: RT-qPCR of ERβ target genes in patient derived GSCs; assay type: cell-based, human; settings: 10 μM, 72h, GSC-040815, GSC-031417, RT-qPCR

Oc1ccc([C@H]2COc3cc(O)ccc3C2)cc1 [S-equol]
IC50 (GBM cells [1]): 100 to 200 µM | brain penetration [2]: lacks brain penetration

CCN(CC)CCCC(C)NC(=O)c1ccc2c(c1)C(=O)c1ccccc1C2=O (stereo not shown) [CIDD-0149897]
IC50 (GBM cells [3]): 7 to 15 µM | ERα reporter activation (ERα): no activation of ERα reporter | invasion and colony formation of U251- ERβ KO cells (U251- ERβ KO cells): no significant effect | long-term colony formation (U251 and U87 cells): significantly reduced | apoptosis of GBM cells (GBM cells [4]): significantly promoted apoptosis | cytotoxic activity against primary GSCs (primary GSCs): potent cytotoxic activity | effect on U251 cell viability (U251 GBM cells): significantly decreased | ERβ target genes in tumor tissues, RT-qPCR [5]: significant increase | tumor progression compared to vehicle ([5]; 5 days/week): significantly reduced | tumor weights compared to vehicle ([5]; after 35 days of treatment): significantly smaller | Ki-67 positive proliferating cells, IHC ([5]; tumors): fewer proliferating cells | mean half-life, terminal elimination phase [6]: 9.59 h | time to maximum blood concentration [6]: less than 15 min | expression of stemness markers (SOX2, and OCT4): reduced the expression of stemness markers | Ki-67 positive cells, IHC [7]: significantly decreased | survival of GSC tumor-bearing mice [7]: significantly enhanced the survival | effect on viability of normal human astrocytes (normal human astrocytes): little to no effect | effect on viability of normal human astrocytes (normal human astrocytes; listed as CIDD-014987): no/limited effect | GBM cells invasion [8]: significantly reduced | neurosphere growth [9]: significantly reduced | selectivity for ERβ over ERα (ERβ [10]): 40 fold | IC50 [11]: 7.4 µM and ~7.4 µM | effect on viability of ERβ-KO cells (U251-ERβ-KO cells): little to no effect | effect on viability of ERβ-KO cells (U251-ERβ-KO cells; listed as CIDD-014987): no/limited effect | survival of orthotopic U251 tumor bearing mice (orthotopic U251 tumor): significantly increased the survival | Ki-67 positive proliferating cells, IHC (orthotopic U251 tumor; tumor sections): fewer proliferating cells | ERβ reporter activity (ERβ [12]): enhanced ERβ reporter activity in a dose dependent manner | ERβ reporter activity (ERβ [13]): enhanced ERβ reporter activity in a dose dependent manner in U251 GBM cells | expression of ERβ target genes (ERβ target genes): activation of ERβ target genes
